Structures can show the parent of a compound that is named as a salt.
Biological target: human Factor Xa (Homo sapiens, UniProt P00742)
Experiment: In vitro assay for inhibition of Factor Xa (2), fluorogenic assay
Format: biochemical
Conditions: substrate Rhodamine 110, bis-(CBZ-glycylglycyl-L-arginine amide 10 μM), Ki calculated from IC50
Experimental: In Vitro Assay for Inhibition of Factor Xa (2)
All other compounds of the present invention were tested for their Factor Xa inhibitory activity as determined in vitro by their ability to inhibit human Factor Xa in a fluorogenic assay, using Rhodamine 110, bis-(CBZ-glycylglycyl-L-arginine amide as the fluorogenic substrate. Compounds were diluted from a 10 mM stock solution in dimethylsulfoxide at appropriate concentrations. Assay was performed at room temperature using buffer consisting of: 50 mM Tris-HCl, 150 mM NaCl, 5 mM CaCl2, pH 7.4. containing human Factor Xa (final conc. Of 0.0003U.ml−1). Compound and enzyme were preincubated for 15 min prior to addition of the substrate (final conc. of 10 μM). The reaction was stopped after 3 hrs with the addition of H-D-PHE-PRO-ARG-Chloromethylketone. […] To obtain IC50 values the data were analysed using ActivityBase® and XLfit®.
Calculation of Ki values:
Ki=IC50/(1+[Substrate]/Km)
The Ki value for the above assay can be obtained by dividing the IC50 value by 1.6.

Chain of human Factor Xa (P00742 235-488 limits assumed): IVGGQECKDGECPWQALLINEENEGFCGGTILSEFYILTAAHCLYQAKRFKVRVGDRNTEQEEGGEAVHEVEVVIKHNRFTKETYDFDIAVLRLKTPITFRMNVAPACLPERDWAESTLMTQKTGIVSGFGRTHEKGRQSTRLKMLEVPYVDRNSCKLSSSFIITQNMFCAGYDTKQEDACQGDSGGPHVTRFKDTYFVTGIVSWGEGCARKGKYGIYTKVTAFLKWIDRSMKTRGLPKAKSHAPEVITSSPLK
Chain of human Factor Xa (P00742 41-179 partner limits assumed): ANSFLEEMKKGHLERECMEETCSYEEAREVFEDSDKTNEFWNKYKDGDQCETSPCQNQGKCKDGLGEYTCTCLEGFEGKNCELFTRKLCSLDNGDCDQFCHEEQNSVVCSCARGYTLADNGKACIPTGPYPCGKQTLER

Ki [nM]	Compound
< 200	COc1ncc(-c2ccc(N3CC[C@H](NS(=O)(=O)c4ccc5cc(Cl)ccc5c4)C3=O)c(F)c2)c(OC)n1 [Example 56, 6-Chloro-N-{(3S)-1-[4-(2,4-dimethoxypyrimidin-5-yl)-2-fluorophenyl]oxopyrrolidin-3-yl}naphthalene-2-sulfonamide]
< 10	O=C1[C@@H](NS(=O)(=O)c2ccc3cc(Cl)ccc3c2)CCN1c1ccc(-c2cccnc2)cc1F [Example 57, 6-Chloro-N-[(3S)-1-(2-fluoro-4-pyridin-3ylphenyl)-2-oxopyrrolidin-3-yl]naphthalene-2-sulfonamide]
< 200	COc1ccc(-c2ccc(N3CC[C@H](NS(=O)(=O)c4ccc5cc(Cl)ccc5c4)C3=O)c(F)c2)cn1 [Example 58, 6-Chloro-N-{(3S)-1-[2-fluoro-4-(6-methoxypyridin-3-yl)phenyl]-2-oxopyrrolidin-3-yl}naphthalene-2-sulfonamide]
< 200	CSc1ccc(-c2ccc(N3CC[C@H](NS(=O)(=O)c4ccc5cc(Cl)ccc5c4)C3=O)c(F)c2)cn1 [Example 60, 6-Chloro-N-((3S)-1-{2-fluoro-4-[6-(methylthio)pyridin-3-yl]phenyl}-2-oxopyrrolidin-3-yl)naphthalene-2-sulfonamide]
< 200	O=C1[C@@H](NS(=O)(=O)c2ccc3cc(Cl)ccc3c2)CCN1c1ccc(-c2cncc(Br)c2)cc1F [Example 61, N-{(3S)-1-[4-(5-Bromopyridin-3-yl)-2-fluorophenyl]-2-oxopyrrolidin-3-yl}-6-chloronaphthalene-2-sulfonamide]
< 10	COc1ccncc1-c1ccc(N2CC[C@H](NS(=O)(=O)c3ccc4cc(Cl)ccc4c3)C2=O)c(F)c1 [Example 62, 6-Chloro-N-{(3S)-1-[2-fluoro-4-(4-methoxypyridin-3-yl)phenyl]-2-oxopyrrolidin-3-yl}naphthalene-2-sulfonamide]
< 200	O=C1[C@@H](NS(=O)(=O)c2ccc3cc(Cl)ccc3c2)CCN1c1ccc(-c2cncnc2)cc1F [Example 63, 6-Chloro-N-[(3S)-1-(2-fluoro-4-pyrimidin-5-ylphenyl)-2-oxopyrrolidin-3-yl]naphthalene-2-sulfonamide]
< 200	Cc1ccc(-c2ccc(N3CC[C@H](NS(=O)(=O)c4ccc5cc(Cl)ccc5c4)C3=O)c(F)c2)s1 [Example 68, 6-Chloro-N-{(3S)-1-[2-fluoro-4-(5-methylthien-2-yl)phenyl]-2-oxopyrrolidin-3-yl}naphthalene-2-sulfonamide]
< 200	Cc1cscc1-c1ccc(N2CC[C@H](NS(=O)(=O)c3ccc4cc(Cl)ccc4c3)C2=O)c(F)c1 [Example 69, 6-Chloro-N-{(3S)-1-[2-fluoro-4-(4-methylthien-3-yl)phenyl]-2-oxopyrrolidin-3-yl}naphthalene-2-sulfonamide]
< 20	Cc1noc(C)c1-c1ccc(N2CC[C@H](NS(=O)(=O)c3ccc4cc(Cl)ccc4c3)C2=O)c(F)c1 [Example 72, 6-Chloro-N-{(3S)-1-[4-(3,5-dimethylisoxazol-4-yl)-2-fluorophenyl]-2-oxopyrrolidin-3-yl}naphthalene-2-sulfonamide]
< 10	Cn1ccnc1-c1ccc(N2CC[C@H](NS(=O)(=O)c3ccc4cc(Cl)ccc4c3)C2=O)c(F)c1 [Example 77, 6-Chloro-N-{(3S)-1-[2-fluoro-4-(1-methyl-1H-imidazol-2-yl)phenyl]-2-oxopyrrolidin-3-yl}naphthalene-2-sulfonamide]
< 10	O=C1[C@@H](NS(=O)(=O)c2ccc3cc(Cl)ccc3c2)CCN1c1ccc(-c2cccnc2Cl)cc1F [Example 78, 6-Chloro-N-{(3S)-1-[4-(2-chloropyridin-3-yl)-2-fluorophenyl]-2-oxopyrrolidin-3-yl}naphthalene-2-sulfonamide]
< 10	N#Cc1ncccc1-c1ccc(N2CC[C@H](NS(=O)(=O)c3ccc4cc(Cl)ccc4c3)C2=O)c(F)c1 [Example 79, 6-Chloro-N-{(3S)-1-[4-(2-cyanopyridin-3-yl)-2-fluorophenyl-]-2-oxopyrrolidin-3-yl}naphthalene-2-sulfonamide]
< 1000	O=C1[C@@H](NS(=O)(=O)c2ccc3cc(Cl)ccc3c2)CCN1c1ccc(-c2ncccn2)cc1F [Example 81, 6-Chloro-N-[(3S)-1-(2-fluoro-4-pyrimidin-2-ylphenyl)-2-oxopyrrolidin-3-yl]naphthalene-2-sulfonamide]
< 10	O=C1[C@@H](NS(=O)(=O)c2ccc3cc(Cl)ccc3c2)CCN1c1ccc(-c2ncccc2Cl)cc1F [Example 82, 6-Chloro-N-{(3S)-1-[4-(3-chloropyridin-2-yl)-2-fluorophenyl]-2-oxopyrrolidin-3-yl}naphthalene-2-sulfonamide]
< 20	Cn1cnc(-c2ccc(N3CC[C@H](NS(=O)(=O)c4ccc5cc(Cl)ccc5c4)C3=O)c(F)c2)c1 [Example 84, 6Chloro-N-{(3S)-1-[2-fluoro-4-(1-methyl-1H-imidazol-4-yl)phenyl]-2-oxopyrrolidin-3-yl}naphthalene-2-sulfonamide Formate]

More lines, now with the values behind:

Compound	Ki [nM]
CC(C)(C)OC(=O)CN([C@H]1CCN(c2ccc(-c3ccccc3S(C)(=O)=O)cc2F)C1=O)S(=O)(=O)/C=C/c1ccc(Cl)s1 [Example 47, tert-Butyl ({[(E)-2-(5-chlorothien-2-yl)ethenyl]sulfonyl}{(3S)-1-[3-fluoro-2′-(methylsulfonyl)-1,1′-biphenyl-4-yl]-2-oxopyrrolidin-3-yl}amino)acetate]	< 10
CS(=O)(=O)c1ccccc1-c1ccc(N2CC[C@H](N(CC(=O)O)S(=O)(=O)/C=C/c3ccc(Cl)s3)C2=O)nc1 [Example 48, {[(E)-2-(5-Chlorothien-2-yl)(ethenyl]sulfonyl}((3S)-1-{5-[2-(methylsulfonyl)phenyl]pyridin-2-yl}-2-oxopyrrolidin-3-yl)amino]acetic Acid]	< 10
CS(=O)(=O)c1ccccc1-c1ccc(N2CC[C@H](N(CC(=O)O)S(=O)(=O)/C=C/c3ccc(Cl)s3)C2=O)c(F)c1 [Example 49]	< 10
NC(=O)c1cccc(-c2ccc(N3CC[C@H](NS(=O)(=O)c4ccc5cc(Cl)ccc5c4)C3=O)c(F)c2)c1 [Example 50, 4′-[(S)-3-(6-Chloro-naphthalene-2-sulphonylamino)-2-oxo-pyrrolidin-1-yl]-3′-fluoro-biphenyl-3-carboxylic Acid Amide]	< 10
CSc1ccccc1-c1cnc(N2CC[C@H](NS(=O)(=O)c3ccc4cc(Cl)ccc4c3)C2=O)s1 [Example 51, 6-Chloro-naphthalene-2-sulphonic Acid [(S)-1-[5-(2-methylsulphanylphenyl)-thiazol-2-yl]-2-oxo:pyrrolidin-3-yl]amide]	< 200
CS(=O)(=O)c1ccccc1-c1ccc(N2CC[C@H](NS(=O)(=O)c3cccc(CN)c3)C2=O)c(F)c1 [Example 53, 3-(Aminomethyl)-N-{(3S)-1-[3-fluoro-2′-(methylsulfonyl)-1,1′-biphenyl-4-yl]-2-oxopyrrolidin-3-yl}benzenesulfonamide]	< 20
O=C1[C@@H](NS(=O)(=O)c2ccc3cc(Cl)ccc3c2)CCN1c1ccc(-c2ccncc2)cc1F [Example 55, 6-Chloro-N-[(3S)-1-(2-fluoro-4-pyridin-4-ylphenyl)-2-oxopyrrolidin-3-yl]naphthalene-2-sulfonamide]	< 10
NCc1cccc(-c2ccc(N3CC[C@H](NS(=O)(=O)c4ccc5cc(Cl)ccc5c4)C3=O)c(F)c2)c1 [Example 64]	< 10
O=C1[C@@H](NS(=O)(=O)c2ccc3cc(Cl)ccc3c2)CCN1c1ccc(-c2ccoc2)cc1F [Example 65, 6-Chloro-N-{(3S)-1-[2-fluoro-4-(3-furyl)phenyl]-2-oxopyrrolidin-3-}naphthalene-2-sulfonamide]	< 200
O=C1[C@@H](NS(=O)(=O)c2ccc3cc(Cl)ccc3c2)CCN1c1ccc(-c2ccsc2)cc1F [Example 67, 6-Chloro-N-[(3S)-1-(2-fluoro-4-thien-3-ylphenyl)-2-oxopyrrolidin-3-yl]naphthalene-2-sulfonamide]	< 200
O=Cc1ccsc1-c1ccc(N2CC[C@H](NS(=O)(=O)c3ccc4cc(Cl)ccc4c3)C2=O)c(F)c1 [Example 70, 6-Chloro-N-{(3S)-1-[2-fluoro-4-(3-formylthien-2-yl)phenyl]-2-oxopyrrolidin-3-yl}naphthalene-2-sulfonamide]	< 20
O=C1[C@@H](NS(=O)(=O)c2ccc3cc(Cl)ccc3c2)CCN1c1ccc(-c2ccc(Cl)s2)cc1F [Example 71, 6-Chloro-N-{(3S)-1-[4-(5-chlorothien-2-yl)-2-fluorophenyl]-2-oxopyrrolidin-3-yl}naphthalene-2-sulfonamide]	< 200
O=C1[C@@H](NS(=O)(=O)c2ccc3cc(Cl)ccc3c2)CCN1c1ccc(-c2ccccc2)cc1F [Example 74, 6-Chloro-N-[(3S)-1-(3-fluoro-1,1′-biphenyl-4-yl)-2-oxopyrrolidin-3-yl]naphthalene-2-sulfonamide]	< 200
O=C1[C@@H](NS(=O)(=O)c2ccc3cc(Cl)ccc3c2)CCN1c1ccc(-c2cc[n+]([O-])cc2)cc1F [Example 76, 6-Chloro-N-{(3S)-1-[2-fluoro-4-(1-oxidopyridin-4-yl)phenyl]-2-oxopyrrolidin-3-yl}naphthalene-2-sulfonamide]	< 20
O=C1[C@@H](NS(=O)(=O)/C=C/c2ccc(Cl)s2)CCN1c1ccc(-c2ccncc2Cl)cc1F [Example 80, (E)-N-{(3S)-1-[4-(3-Chloropyridin-4-yl)-2-fluorophenyl]-2-oxopyrrolidin-3-yl}-2-(5-chlorothien-2-yl)ethenesulfonamide]	< 10
